Laboratory results as given in PubChem BioAssay (NCI).
Several values for one entry are separate records, joined by “and”; a condition that tells them apart may be missing. Equal values may be shown once.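 Where inhibition never reached the appropriate level, the endpoint shown equals the highest concentration tested. Otherwise, values were interpolated linearly from a five-concentration, 48-hour dose response in 96-well plates. GI50 marks 50% less growth. TGI is the concentration that stops growth completely.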

Key:
Assay in all cases: NCI-60 cell line screen, 48 h
SR leukemia = test system: SR leukemia
786-0 renal = test system: 786-0 renal
SF-295 CNS = test system: SF-295 CNS
IGROV1 ovarian = test system: IGROV1 ovarian
NCI-H23 lung = test system: NCI-H23 lung
HCC-2998 colon = test system: HCC-2998 colon
SNB-19 CNS = test system: SNB-19 CNS
PC-3 prostate = test system: PC-3 prostate
NCI-H522 lung = test system: NCI-H522 lung
HOP-62 NSCLC = test system: HOP-62 NSCLC

SMILES	GI50 (SR leukemia)	TGI (SR leukemia)	GI50 (786-0 renal)	TGI (786-0 renal)	GI50 (SF-295 CNS)	TGI (SF-295 CNS)	GI50 (IGROV1 ovarian)	TGI (IGROV1 ovarian)	GI50 (NCI-H23 lung)	TGI (NCI-H23 lung)	GI50 (HCC-2998 colon)	TGI (HCC-2998 colon)	GI50 (SNB-19 CNS)	TGI (SNB-19 CNS)	GI50 (PC-3 prostate)	TGI (PC-3 prostate)	GI50 (NCI-H522 lung)	TGI (NCI-H522 lung)	GI50 (HOP-62 NSCLC)	TGI (HOP-62 NSCLC)
O=C(Nc1ccc(OCc2nnc(-c3ccccc3)o2)c(F)c1)Nc1ccc(Cl)c(C(F)(F)F)c1	1.37 µM	4.31 µM	2.11 µM	4.21 µM	2.18 µM	6.83 µM	2.12 µM	5.23 µM	2.37 µM	8.09 µM	2.58 µM	7.83 µM	2.35 µM	16.7 µM	1.3 µM	4.85 µM	1.51 µM	4.87 µM	2.84 µM	7.95 µM
COc1ccc2cc(Cn3cc[n+](Cc4ccc5ccccc5c4)c3)ccc2c1	1.68 µM	4.27 µM	4.72 µM	19.6 µM	4.95 µM	21.9 µM	1.75 µM	4.87 µM	2.37 µM	12 µM	2.11 µM	5.28 µM	1.93 µM	6.65 µM	2.13 µM	9.17 µM	1.53 µM	4.68 µM	4.23 µM	20.9 µM
OCC1OC(n2cnc3c2NC=NC[C@H]3O)CC1O (stereo partly specified)		443 µM	> 588 µM	500 µM and > 588 µM	> 588 µM	475 µM and > 588 µM	> 588 µM	500 µM and > 588 µM	> 588 µM	500 µM and > 588 µM	> 588 µM	402 µM and > 588 µM		500 µM		> 500 µM	> 588 µM	500 µM and > 588 µM	> 588 µM	471 µM and > 588 µM
Cc1nn(-c2ccccc2)c2nc3c(nc12)C1=NCCN1C(c1ccc(Cl)cc1)N3 (stereo unspecified)	2.48 µM	6.32 µM	2.99 µM	8.9 µM	2.56 µM	8.24 µM	11.7 µM	27.4 µM	15.3 µM	31.6 µM	1.92 µM	3.49 µM	9.91 µM	26.9 µM	4.33 µM	18.3 µM	2.83 µM	7.14 µM	3.26 µM	8.31 µM
CCCC(=O)Nc1ccc2c(c1)CN1C(=O)c3ccccc3C1=N2		> 100 µM		> 100 µM		> 100 µM		> 100 µM		> 100 µM		> 100 µM		> 100 µM		> 100 µM		> 100 µM		> 100 µM
Oc1ccc(-c2cn3cc(Cl)sc3n2)cc1	4.51 µM	18.8 µM	18.2 µM	67.1 µM	47.3 µM	> 100 µM	67.7 µM	> 100 µM					58.8 µM	> 100 µM	15.9 µM	46.8 µM	32.6 µM	> 100 µM	> 100 µM	> 100 µM
N#C/C(=C1C=C/C(=N\O)C(Cl)=C\1)c1ccccc1	1.8 µM	11.3 µM	0.745 µM	11.9 µM	3.74 µM	> 100 µM	4.26 µM	23.7 µM	5.61 µM	65.6 µM	4.27 µM	15.8 µM	22.1 µM	> 100 µM	0.688 µM	11.7 µM	1.98 µM	7.92 µM	1.91 µM	13 µM
COc1cc(C2CC(c3ccccc3)=NN2C(C)=O)cc(OC)c1OC (stereo unspecified)	0.996 µM	> 100 µM	5.93 µM	> 100 µM	0.576 µM	4.15 µM	4.66 µM	> 100 µM	5.91 µM	> 100 µM	6.4 µM	> 74 µM	5.63 µM	> 100 µM	3.97 µM	> 100 µM	5.53 µM	> 100 µM	5.59 µM	> 100 µM
O=C1CC[C@H](c2ccc(O)c3c2C(=O)[C@@H]2O[C@@H]2C3=O)c2cccc(O)c21	0.835 µM	4.57 µM	1.79 µM	3.43 µM	15.4 µM	29.7 µM			3.31 µM	20.4 µM	2.12 µM	4.29 µM	10.6 µM	33.6 µM	2.52 µM	7.22 µM	1.72 µM	3.33 µM	3.1 µM	11.6 µM
CC(C)NC(=O)OCc1c(COC(=O)NC(C)C)c(-c2ccc(Cl)c(Cl)c2)n2c1CCC2		36.3 µM		44.5 µM		72.8 µM		70.6 µM		60.9 µM		61.2 µM		81 µM		> 100 µM		> 74.4 µM		62 µM
N=c1n(Cc2ccccc2)c(N)cc(=O)n1Cc1ccccc1	2.28 µM	7.53 µM	2.97 µM	9.76 µM	2.68 µM	19.1 µM	4.04 µM	> 59.8 µM	1.48 µM	5.96 µM	4.96 µM	29.1 µM	5.04 µM	18.2 µM	2.74 µM	19.9 µM	0.503 µM	2.42 µM	1.35 µM	2.68 µM
CCn1c(-c2nonc2N)nc2cncc(C(=O)NCCNC)c21	4.53 µM	> 25 µM	12.1 µM	> 25 µM	> 25 µM	> 25 µM	4.87 µM	> 22.6 µM	9.32 µM	> 25 µM	4.77 µM	> 25 µM	> 25 µM	> 25 µM	> 25 µM	> 25 µM	13.1 µM	> 25 µM	3.11 µM	> 25 µM
COc1ccc2c(c1)/C(=C\c1c(Cl)n(C)c3ccccc13)C(=O)N2	0.157 µM	0.605 µM	2.18 µM	12.5 µM	0.981 µM	6.66 µM	0.561 µM		1.99 µM	11.4 µM	0.306 µM	1.08 µM	1.85 µM	23 µM	1.33 µM	> 36.8 µM	0.726 µM	7.14 µM	1.44 µM	24 µM
CCCCCCCCCCCCCCCCCC(=O)OCC(COC1OC(CS(=O)(=O)O)C(O)C(O)C1O)OC(=O)CCCCCCCCCCCCCCCCC (stereo unspecified)		4.42 µM		> 100 µM		> 100 µM		> 100 µM		> 100 µM		> 100 µM		> 100 µM		> 100 µM		> 100 µM		> 100 µM
COC1=C2C[C@@H](C)C[C@@H](OC)[C@@H](O)[C@H](C)/C=C(\C)[C@@H](OC(N)=O)[C@H](OC)/C=C\C=C(/C)C(=O)NC(=CC1=O)C2=O				8.21 µM and 6.04 µM and 13.7 µM										28 µM and 26.5 µM and 10.4 µM		8.01 µM and 5.58 µM and 14.9 µM				
N#CCCSC(=S)C1CCCC1=N (stereo unspecified)				> 100 µM		> 100 µM		> 100 µM		> 100 µM				> 100 µM		> 100 µM		> 100 µM		> 100 µM
Cc1ccc(NC2=C(Cl)C(=O)N(Cc3ccccc3)C2=O)cc1Cl	1.19 µM	5.75 µM	6.39 µM	21 µM	7.66 µM	22.5 µM			4.13 µM	14.6 µM			11.2 µM	34.7 µM	1.99 µM	8.84 µM	2.97 µM	15.4 µM	12.6 µM	25.2 µM
O=C(O)c1ccccc1-c1ccccc1C(=O)Nc1ccc2c(c1)[nH]c(=O)c1ccccc12				> 100 µM		> 100 µM		> 100 µM		> 100 µM				> 100 µM		> 100 µM		> 100 µM		> 100 µM
COc1ccc(-c2nc(N3CCOCC3)c3sc(CN(C)c4ncc(C(=O)NO)cn4)cc3n2)cn1	< 0.01 µM	0.234 µM	0.0313 µM	0.171 µM	< 0.01 µM	0.042 µM	< 0.01 µM	0.0439 µM	0.0103 µM	0.601 µM			< 0.01 µM	0.0907 µM	< 0.01 µM	0.112 µM			< 0.0106 µM	0.123 µM
CCCc1nc(NC#N)nc(C(=O)NC23CC4CC(CC(C4)C2)C3)c1C		> 100 µM		> 100 µM		> 100 µM		> 100 µM		> 100 µM		> 100 µM		> 100 µM				> 100 µM		> 100 µM
CSc1nc(C)c(Br)c(=O)n1C1OC(COC(C)=O)C(OC(C)=O)C(OC(C)=O)C1OC(C)=O (stereo unspecified)		> 100 µM	74 µM and 26.3 µM	> 100 µM and 48.5 µM		79.7 µM and 70.8 µM	> 100 µM and 27.4 µM	> 100 µM and 71.5 µM	> 100 µM and 47 µM	> 100 µM		> 100 µM	51.8 µM	> 100 µM			> 100 µM and 30.9 µM	> 100 µM		72.3 µM and 43.9 µM
O=C(O)c1cccc2cccc(C(=O)O)c12.[Hg]	4.05 µM	23.5 µM	15.4 µM	29.1 µM	17.8 µM	32.2 µM	15.8 µM	29.2 µM	15.7 µM	29.9 µM	12 µM	25.3 µM	15.9 µM	29.7 µM			0.687 µM	2.42 µM	20.8 µM	35.3 µM
Cc1c(-c2nnc(-c3ccc(F)cc3)o2)nnn1-c1ccnc2c(C(F)(F)F)cccc12			40.6 µM	> 100 µM	29.6 µM	> 100 µM	23.4 µM	> 100 µM	65.7 µM	> 100 µM	> 100 µM	> 100 µM	25.9 µM	82.3 µM	23.1 µM	> 100 µM	84.7 µM	> 100 µM	24.4 µM	78.4 µM
CCOC(=O)N[C@@H]1C2CC(=O)C(O2)[C@@H]1OC (stereo partly specified)		> 100 µM		> 100 µM		> 100 µM		> 100 µM		> 100 µM		> 100 µM		> 100 µM				> 100 µM		> 100 µM
O=C1c2cc([N+](=O)[O-])cc3cc([N+](=O)[O-])cc(c23)C(=O)N1CCCNCCNCCCN1C(=O)c2cc([N+](=O)[O-])cc3cc([N+](=O)[O-])cc(c23)C1=O				3.35 µM		8 µM		1.74 µM		2.41 µM		1.51 µM		> 23.3 µM		7.87 µM		1.13 µM		3.07 µM
COc1ccc(-c2cc(-c3cc(C)ccc3O)[nH]c(=O)n2)cc1		> 100 µM		> 100 µM		> 100 µM		> 100 µM		> 100 µM		> 100 µM		> 100 µM				94 µM		76.4 µM
O=C(NC1CCCCC1)NS(=O)(=O)c1ccc(-n2nc3c(c2-c2ccc(Cl)cc2)Cc2ccccc2-3)cc1			5.07 µM	> 100 µM	11.3 µM	28.9 µM	18.6 µM	35.8 µM					43.7 µM	> 100 µM	6.28 µM	24.4 µM	18.3 µM	52.5 µM	35.8 µM	> 100 µM
COC1OC(COS(=O)(=O)c2ccc(C)cc2)C(O)C(OS(=O)(=O)c2ccc(C)cc2)C1OS(=O)(=O)c1ccc(C)cc1 (stereo unspecified)		> 100 µM		> 100 µM		> 100 µM		> 100 µM		> 100 µM		> 100 µM		> 100 µM				> 100 µM		> 100 µM
C/C(=C\CCc1ccsc1)CC/C=C(\C)CCCN1CCC(CO)CC1	1.81 µM	4.4 µM	1.77 µM	3.36 µM	2 µM	4.13 µM	3.26 µM	10.8 µM	3.4 µM	12.9 µM	1.97 µM	3.77 µM	2.63 µM	9.28 µM			1.9 µM	3.74 µM	1.89 µM	3.63 µM
C=C(C)[C@@H]1CC[C@]2(C(=O)O)CC[C@]3(C)[C@H](CC[C@@H]4[C@@]5(C)C/C(=C/c6ccc(OC)cc6)C(=O)C(C)(C)[C@@H]5CC[C@]43C)[C@@H]12			2.83 µM	12.1 µM	1.71 µM	4.45 µM	2.15 µM	7.3 µM	2.44 µM	8.25 µM	2.1 µM	5.73 µM	3.07 µM	17 µM	1.74 µM	8.24 µM	1.97 µM	6.65 µM	2.24 µM	7.51 µM
